Values of other authors in US20110252579A1, “METHOD FOR TREATING FABRICS” (priority 2010, published 2011).
Structures can show the parent of a compound that is named as a salt.

system: not given; settings: in water

Structure (SMILES) | water solubility
CC1(C)C(=O)N(CO)C(=O)N1CO [DMDM hydantoin, 1,3-bis(hydroxymethyl)-5,5-dimethyl-2,4-imidazolidinedione] | more than 50%
[H]/N=C(\N/C(=N/[H])NCCCCCCNC(=N)NC(=N)Nc1ccc(Cl)cc1)Nc1ccc(Cl)cc1 [chlorhexidine digluconate salt, 1,1′-hexamethylene bis(5-(p-chlorophenyl)biguanide), reference compound] | about 70%
[Na+].[O-][n+]1ccccc1[S-] [sodium pyrithione] | about 50%

The remaining lines, values ahead:

water solubility | Structure (SMILES)
about 2.67% | OCCOc1ccccc1 [2-phenoxyethanol]
about 2% | OCCc1ccccc1 [2-phenylethanol]
about 0.46% | O=[N+]([O-])C1(Br)COCOC1 [Bronidox L, 5-bromo-5-nitro-1,3-dioxane]
about 25% | O=[N+]([O-])C(Br)(CO)CO [Bronopol, 2-bromo-2-nitropropane-1,3-diol]
about 4% | OCc1ccccc1 [benzyl alcohol]
about 1.8% | [H]/N=C(\N/C(=N/[H])NCCCCCCNC(=N)NC(=N)Nc1ccc(Cl)cc1)Nc1ccc(Cl)cc1 [chlorhexidine diacetate salt, 1,1′-hexamethylene bis(5-(p-chlorophenyl)biguanide), reference compound]
about 0.8% | CC(C)(O)C(Cl)(Cl)Cl [chlorobutanol, 1,1,1-Trichloro-2-methylpropan-2-ol]

system: typical Gram negative and positive bacteria, fungi and yeasts; settings: level from about 0.001% to about 0.5% by weight of the usage composition

Structure (SMILES) | effectiveness against Gram negative and positive bacteria, fungi and yeasts
Cn1sc2c(c1=O)CCC2 [Promexal, 2-methyl-4,5-trimethylene-4-isothiazolin-3-one] | effective
O=c1[nH]sc2ccccc12 [Proxel, 1,2-benzisothiazolin-3-one] | effective

system: bacteria; settings: not given

Structure (SMILES) | antimicrobial spectrum
CC1(C)C(=O)N(CO)C(=O)N1CO [DMDM hydantoin, 1,3-bis(hydroxymethyl)-5,5-dimethyl-2,4-imidazolidinedione] | mainly effective on bacteria
